{"source": "patent US5506102A", "about": "(priority 1993, dated 1996)", "key": {"[1]": {"system": "PR-B (co-expressed with PR-A587)", "assay": "Repression of PR-B mediated MMTV-LUC transcription by DNA binding mutant PR-A587, CV-1 cells", "type": "cell-based, human", "settings": "equimolar phPR-A587 and phPR-B DNA, 10^-7 M progesterone, FIG. 9", "protocol": "The relative luciferase activity is calculated by dividing the normalized luciferase value at a given point by that obtained in the absence of transfected receptor or ligand.\n(§1) Cells were seeded in 12-well, 96-well or 10 cm tissue culture plates. […] 20 μg of DNA/ml of transfection buffer were used in each transfection reaction. In this mix, the concentration of the luciferase plasmids and that of the internal control plasmid pCH110 (Pharmacia, Inc.), which contains the gene for the β-galactosidase enzyme, remained constant ([…] of each plasmid DNA), while the receptor plasmid concentration varied as indicated for each experiment. Different amounts of receptor parental plasmid, pSV2-neo (Dr. Bert O'Malley, Baylor College of Medicine, Houston, Tex.) was included to keep constant the total amount of the SV40 enhancer vectors. pGEM4 plasmid DNA (Promega Biotech, Madison, Wis.) was added to balance the total DNA concentration to 20 g/reaction. For the 96-well plate experiments, transfections were performed on a Biomek 1000 Automated Laboratory Workstation (Beckman Instruments, Fullerton, Calif.).\nCells were seeded 24 hours prior to transfection in the fiat-bottom tissue culture plates ([…]) in phenol red-free DMEM containing 10% FCS. […]"}, "[2]": {"target": "T1, human progesterone receptor isoform PR-A (Homo sapiens, UniProt P06401)", "T1 sequence (P06401 165-933)": "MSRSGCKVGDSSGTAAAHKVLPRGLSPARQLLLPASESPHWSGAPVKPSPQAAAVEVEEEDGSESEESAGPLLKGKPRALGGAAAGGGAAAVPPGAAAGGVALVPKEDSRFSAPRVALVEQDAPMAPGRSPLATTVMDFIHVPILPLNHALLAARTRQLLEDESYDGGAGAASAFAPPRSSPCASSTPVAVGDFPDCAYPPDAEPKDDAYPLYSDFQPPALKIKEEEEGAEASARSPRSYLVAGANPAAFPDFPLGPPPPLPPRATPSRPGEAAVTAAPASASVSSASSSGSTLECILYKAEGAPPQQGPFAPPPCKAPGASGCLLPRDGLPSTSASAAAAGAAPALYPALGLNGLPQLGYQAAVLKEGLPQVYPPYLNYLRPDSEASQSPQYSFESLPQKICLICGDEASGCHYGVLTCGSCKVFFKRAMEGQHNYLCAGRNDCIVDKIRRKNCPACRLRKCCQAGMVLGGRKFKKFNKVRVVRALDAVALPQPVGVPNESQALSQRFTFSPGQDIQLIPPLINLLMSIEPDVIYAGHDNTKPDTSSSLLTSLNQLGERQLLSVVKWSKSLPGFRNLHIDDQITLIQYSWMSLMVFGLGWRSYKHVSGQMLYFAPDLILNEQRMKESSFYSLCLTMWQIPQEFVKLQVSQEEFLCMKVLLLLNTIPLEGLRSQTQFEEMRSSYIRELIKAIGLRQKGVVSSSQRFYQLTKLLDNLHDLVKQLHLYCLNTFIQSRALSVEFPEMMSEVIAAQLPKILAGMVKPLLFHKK", "assay": "PR-A transactivation of MMTV-LUC reporter, transient transfection", "type": "cell-based", "settings": "10^-7 M progesterone", "protocol": "as §1\nCells were seeded 24 hours prior to transfection in the fiat-bottom tissue culture plates ([…]) in phenol red-free DMEM containing 10% FCS. […] Using calcium phosphate co-precipitation, DNA solution was added dropwise with vortexing into an equal volume of 2X HBS pH 6.9 (280 mM NaCl. 50 mM HEPES, 1.5 mM Na2 HPO4) and precipitates were allowed to form for 20 minutes. Cells were transfected ( […] of DNA mix/well) for 6 hours and then washed with phosphate-bufferedsaline (PBS) to remove the precipitate. Cells were incubated for an additional 24 hours in phenol red-free medium containing 10% charcoal-treated FCS, with or without hormones as indicated in the text. Cell extracts were prepared as described by Berger et al., Supra, and assayed for luciferase and β-galactosidase activities. All determinations were performed in triplicates in at least two independent experiments, and were normalized for transfection efficiency by using β-galactosidase as an internal control."}, "human estrogen receptor": {"system": "human estrogen receptor", "assay": "ER transcriptional activity on MMTV-ERE-LUC, CV-1 cells, ER co-expressed with PR-B", "type": "cell-based", "settings": "10^-7 M 17β-estradiol, FIG. 11D", "protocol": "All values were normalized for transfection efficiency by simultaneous estimation of luciferase and β-galactocidase activities. The relative luciferase activity is calculated by dividing the normalized luciferase value at a given point by that obtained in the absence of transfected receptor or ligand. Data shown represent the mean +/- the average deviation from the mean of triplicate estimations.\nVegeto et al., supra. Cells were plated into 96-well tissue culture plates. The vector DNA was introduced into the CV-1 cells using calcium phosphate coprecipitation as described herein. More specifically, 20 μg of DNA/ml of transfection buffer were used in each transfection. Each transfection mix included 0.5 μg of pRST7hER, 9.5 μg of MMTV-ERE-LUC, 5 μg of pCH110, (which contains the gene for β-galactosidase) as an internal control and 5 μg of PGEM4 DNA as a carrier. […] The concentration of pXVhPR-A vector chosen was determined by performing the experiment at several different concentrations of vector, and then using that concentration that was optimal for transcriptional readout. […] The Normalized LUC activity was calculated by dividing the raw luciferase (×10^4) units for each point by the β-galactosidase activity [(OD415 nm ×10^5)/time min.] at that point."}}}
{"smiles": "CC(=O)[C@H]1CC[C@H]2[C@@H]3CCC4=CC(=O)CC[C@]4(C)[C@H]3CC[C@]12C", "note": "[progesterone]", "values": [{"measurement": "reduction of transcriptional activity of PR-B", "setting": "[1]", "value": 90, "unit": "%"}, {"measurement": "progesterone-induced activation of the MMTV promoter by PR-A", "setting": "[2]; CV-1 cells, FIG. 2A", "value": "no progesterone-induced activation of the MMTV promoter by PR-A was observed"}, {"measurement": "maximal induction", "setting": "[2]; HeLa cells, MMTV, 250 ng of transfected DNA, FIG. 2B", "value": "ten-fold"}, {"measurement": "activation of the MMTV promoter by PR-A", "setting": "[2]; HepG2 cells, FIG. 2C", "value": "both PR-A and PR-B functioned as efficient activators"}, {"measurement": "inhibition of ER function with hPR-B", "setting": "human estrogen receptor", "value": "hPR-B will not inhibit"}]}
